According to US10781444B2, “Functional genomics using CRISPR-Cas systems, compositions, methods, screens and applications thereof” (THE BROAD INSTITUTE, INC., priority 2013, dated 2020):

Legend:
[1] = tested on: on-target and off-target genomic loci (NF2, NF1, MED12 and other top-ranking genes); experiment: Deep sequencing of on-target and off-target loci for allele modification in A375 cells; assay type: cell-based, human; details: 7 and 14 days post-transduction
Text: Applicants validated top ranking genes from the GeCKO screen individually using 3-5 sgRNAs (FIGS. 28C-E, 38, 39). […] Applicants compared sgRNA and shRNA-mediated protein depletion and PLX resistance using Western blot (FIG. 28D) and cell growth assays (FIG. 28E). […] Additionally, sgRNAs targeting NF1, MED12, CUL3, TADA1, and TADA2B led to a decrease in protein expression and increased resistance to PLX (FIGS. 38, 39).
Screening timeline considerations: After infection, cells are selected with puromycin. For most cell types, 0.5-2 ug/ml puromycin works well, although the minimum dose that kills all cells without any viral transduction should be determined in advance and the minimum concentration should be used for selection. […] As shown in the deep sequencing of the individual target (array) validations from the PLX resistance screen gene hits, genome modification increases over time. For most targets, genome modification was nearly complete after only 7 days.
Sequencing data analysis and indel detection: Off target loci in the human genome were identified for individual spacers using the CRISPR design tool (available at the website tools.genome-engineering.org). On-target and off-target loci were PCR amplified using Herculase II Fusion polymerase (Agilent), normalized, and pooled in equimolar proportions. Pooled libraries were denatured, diluted to a 14 pM concentration and sequenced using the MiSeq Personal Sequencer (Illumina). Sequencing data was demultiplexed using paired barcodes, aligned to reference amplicons, and analyzed for indels as described previously. Indel length analysis was performed by mapping the distance between multiple short reference sequences in individual reads.

human EMX1 locus = experiment: Surveyor nuclease assay for genome modification at the human EMX1 locus in HEK 293FT cells; assay type: cell-based; details: co-expression with EMX1-targeting chimeric crRNA, n=3
Experimental: Mouse neuro2A (N2A) cell line (ATCC) was maintained with DMEM supplemented with 5% fetal bovine serum (HyClone), 2 mM GlutaMAX (Life Technologies), 100 U/mL penicillin, and 100 μg/mL streptomycin at 37° C. with 5% CO2.
Cells were transfected using Lipofectamine 2000 (Life Technologies) following the manufacturer's recommended protocol. For each well of a 24-well plate a total of 800 ng of plasmids were used.
Genomic DNA was extracted using the QuickExtract DNA extraction kit (Epicentre) following the manufacturer's protocol. […] Extracted genomic DNA was immediately processed or stored at −20° C.
The genomic region surrounding a CRISPR target site for each gene was PCR amplified, and products were purified using QiaQuick Spin Column (Qiagen) following manufacturer's protocol. […] After re-annealing, products were treated with Surveyor nuclease and Surveyor enhancer S (Transgenomics) following the manufacturer's recommended protocol, and analyzed on 4-20% Novex TBE poly-acrylamide gels (Life Technologies). […] Quantification was based on relative band intensities, as a measure of the fraction of cleaved DNA.

Row | Substance | off-target modification over time [1] | also measured
1 | MED12_sg2: sgRNA 20 bp sequence CGTCAGCTTCAATCCTGCCA (expressed or natural sequence) | off-target modification also increases with time | 
2 | NF2_sg4: sgRNA 20 bp sequence GTACTGCAGTCCAAAGAACC (expressed or natural sequence) | off-target modification also increases with time | 
3 | NF2_sg5: sgRNA 20 bp sequence CACAGTGGCCTGGCTCAAAA (expressed or natural sequence) |  | on-target genome modification over time [1]: lower modification that increased by 14 days post-transduction
4 | SpCas9n: SpCas9 nickase with aspartate-to-alanine substitution (D10A) in the RuvC I catalytic domain |  | indels at the EMX1 protospacer target (Surveyor assay) (human EMX1 locus): does not generate indels
